Measurements: patent US10294202B2, “Pyrrolidinones as herbicides” (FMC Corporation, priority 2013, dated 2019)

Experiments:
[1] = system: ducksalad; assay: Test B flooded paddy test; assay type: in vivo, Heteranthera limosa; settings: 500 g ai/ha, Flood; scale of 0 to 100 where 0 is no effect and 100 is complete control
Summary of the method: (§1)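 Plants were grown to the 2-leaf stage, then pots were flooded to 3 cm above the soil and compound was applied directly into the paddy water, with that depth held throughout. After 13 to 15 days in a greenhouse, injury was rated visually against untreated controls on a 0 to 100 scale (100 = complete control).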

[2] = system: morningglory; assay: Test C pre-/postemergence herbicide test; assay type: in vivo, Ipomoea coccinea
Summary of the method: (§2)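 Test compounds, formulated in a surfactant-containing non-phytotoxic solvent blend, are applied to seeded loam/sand soil (preemergence) and to young plants at the 1- to 4-leaf stage in peat-based medium (postemergence). Plants stay 13 to 15 days under greenhouse conditions, then are scored visually relative to controls, 0 = no effect, 100 = complete control.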

[3] = system: pigweed; assay: Test C pre-/postemergence herbicide test; assay type: in vivo, Amaranthus retroflexus
Summary of the method: as §2

[4] = system: barnyardgrass; assay: Test C pre-/postemergence herbicide test; assay type: in vivo, Echinochloa crus-galli
Summary of the method: as §2

[5] = system: oat, wild; assay: Test C pre-/postemergence herbicide test; assay type: in vivo, Avena fatua; settings: Postemergence
Summary of the method: as §2

[6] = system: corn; assay: Test C pre-/postemergence herbicide test; assay type: in vivo, Zea mays
Summary of the method: as §2

[7] = system: waterhemp; assay: Test C pre-/postemergence herbicide test; assay type: in vivo, Amaranthus rudis
Summary of the method: as §2

[8] = system: soybean; assay: Test C pre-/postemergence herbicide test; assay type: in vivo, Glycine max
Summary of the method: as §2

[9] = system: wheat (winter wheat); assay: Test C pre-/postemergence herbicide test; assay type: in vivo, Triticum aestivum
Summary of the method: as §2

[10] = system: rice; assay: Test B flooded paddy test; assay type: in vivo, Oryza sativa; settings: 500 g ai/ha, Flood; scale of 0 to 100 where 0 is no effect and 100 is complete control
Summary of the method: as §1

[11] = system: oilseed rape; assay: Test C pre-/postemergence herbicide test; assay type: in vivo, Brassica napus
Summary of the method: as §2

[12] = system: velvetleaf; assay: Test C pre-/postemergence herbicide test; assay type: in vivo, Abutilon theophrasti
Summary of the method: as §2

[13] = Postemergence, 31 g ai/ha, scale 0 to 100 (0 no effect, 100 complete control)
[14] = Postemergence, 62 g ai/ha, scale 0 (no effect) to 100 (complete control)
[15] = Postemergence, 125 g ai/ha, scale 0 to 100 (0 no effect, 100 complete control)
[16] = Postemergence, 250 g ai/ha, scale 0 to 100 (0 no effect, 100 complete control)
[17] = Preemergence, 31 g ai/ha, scale 0 to 100, 0 is no effect and 100 is complete control
[18] = Preemergence, 62 g ai/ha, scale 0 to 100 (0 no effect, 100 complete control)
[19] = Preemergence, 125 g ai/ha, scale 0 to 100 (0 no effect, 100 complete control)
[20] = 31 g ai/ha, scale 0 to 100 (0 no effect, 100 complete control)
[21] = 62 g ai/ha, scale 0 (no effect) to 100 (complete control)
[22] = 125 g ai/ha, scale 0 to 100 (0 no effect, 100 complete control)
[23] = 250 g ai/ha, scale 0 to 100 (0 no effect, 100 complete control)
[24] = Preemergence, 125 g ai/ha, scale 0 to 100

CN1CC(c2ccc(C(F)(F)F)cc2)C(C(=O)Nc2cccc(F)c2F)C1=O (stereo not shown) [Compound 306]
Plant response rating, Ducksalad [1]: 100
Plant response rating, Morningglory [2, 13]: 0
Plant response rating, Morningglory [2, 14]: 35
Plant response rating, Morningglory [2, 15]: 65
Plant response rating, Morningglory [2, 16]: 5
Morningglory plant response rating [2, 17]: 0
Morningglory plant response rating [2, 18]: 35
Plant response rating, Morningglory [2, 19]: 35
Plant response rating (scale of 0 to 100), Morningglory ([2]; Preemergence, 250 g ai/ha): 35
Plant response rating, Pigweed [3, 13]: 75
Plant response rating, Pigweed [3, 14]: 85
Plant response rating, Pigweed [3, 15]: 85
Plant response rating, Pigweed [3, 16]: 90
Pigweed plant response rating [3, 17]: 80
Pigweed plant response rating [3, 18]: 85
Plant response rating, Pigweed [3, 19]: 85
Plant response rating (scale of 0 to 100), Pigweed ([3]; Preemergence, 250 g ai/ha): 90
Plant response rating, Barnyardgrass [4, 13]: 0
Plant response rating, Barnyardgrass [4, 14]: 45
Plant response rating, Barnyardgrass [4, 15]: 85
Plant response rating, Barnyardgrass [4, 16]: 85
Barnyardgrass plant response rating [4, 17]: 90
Barnyardgrass plant response rating [4, 18]: 90
Plant response rating, Barnyardgrass [4, 19]: 90
Plant response rating (scale of 0 to 100; 0 is no effect, 100 is complete control), Barnyardgrass ([4]; Preemergence, 250 g ai/ha): 95
Plant response rating, Oat, Wild [5, 20]: 0
Plant response rating, Oat, Wild [5, 21]: 0
Plant response rating, Oat, Wild [5, 22]: 0
Plant response rating, Oat, Wild [5, 23]: 5
Plant response rating, Corn [6, 13]: 0
Plant response rating, Corn [6, 14]: 0
Plant response rating, Corn [6, 15]: 0
Plant response rating, Corn [6, 16]: 20
Corn plant response rating [6, 17]: 40
Corn plant response rating [6, 18]: 60
Plant response rating, Corn [6, 19]: 80
Plant response rating (scale of 0 to 100), Corn ([6]; Preemergence, 250 g ai/ha): 75
Plant response rating, Waterhemp [7, 13]: 65
Plant response rating, Waterhemp [7, 14]: 65
Plant response rating, Waterhemp [7, 15]: 80
Plant response rating, Waterhemp [7, 16]: 80
Waterhemp plant response rating [7, 18]: 85
Plant response rating, Waterhemp [7, 19]: 85
Plant response rating (scale of 0 to 100), Waterhemp ([7]; Preemergence, 250 g ai/ha): 90
Plant response rating, Soybean [8, 13]: 0
Plant response rating, Soybean [8, 14]: 5
Plant response rating, Soybean [8, 15]: 5
Plant response rating, Soybean [8, 16]: 5
Soybean plant response rating [8, 18]: 0
Plant response rating, Soybean [8, 19]: 0
Plant response rating (scale of 0 to 100), Soybean ([8]; Preemergence, 250 g ai/ha): 0
Plant response rating, Wheat [9, 13]: 0
Plant response rating, Wheat [9, 14]: 0
Plant response rating, Wheat [9, 15]: 0
Plant response rating, Wheat [9, 16]: 0
Wheat plant response rating [9, 18]: 50
Plant response rating (scale of 0 to 100), Wheat ([9]; Preemergence, 250 g ai/ha): 85
Plant response rating, Rice [10]: 50
Plant response rating, Oilseed Rape [11, 13]: 0
Plant response rating, Oilseed Rape [11, 14]: 50
Plant response rating, Oilseed Rape [11, 15]: 40
Plant response rating, Oilseed Rape [11, 16]: 70
Oilseed Rape plant response rating [11, 17]: 50
Oilseed Rape plant response rating [11, 18]: 70
Plant response rating, Oilseed Rape [11, 19]: 75
Plant response rating (scale of 0 to 100), Oilseed Rape ([11]; Preemergence, 250 g ai/ha): 75
Plant response rating, Velvetleaf [12, 13]: 0
Plant response rating, Velvetleaf [12, 14]: 10
Plant response rating, Velvetleaf [12, 15]: 50
Plant response rating, Velvetleaf [12, 16]: 65
Velvetleaf plant response rating [12, 18]: 60
Plant response rating, Velvetleaf [12, 19]: 60
Plant response rating (scale of 0 to 100), Velvetleaf ([12]; Preemergence, 250 g ai/ha): 65

O=C1NCC(c2cccc(OC(F)F)c2)C1C(=O)Nc1ccccc1F (stereo not shown) [Compound 323]
Plant response rating, Ducksalad [1]: 100
Plant response rating, Morningglory [2, 13]: 0
Plant response rating, Morningglory [2, 14]: 25
Plant response rating, Morningglory [2, 15]: 5
Plant response rating, Morningglory [2, 16]: 25
Morningglory plant response rating [2, 17]: 0
Morningglory plant response rating [2, 18]: 0
Plant response rating, Morningglory [2, 24]: 0
Plant response rating (scale of 0 to 100), Morningglory ([2]; Preemergence, 250 g ai/ha): 30
Plant response rating, Pigweed [3, 13]: 0
Plant response rating, Pigweed [3, 14]: 5
Plant response rating, Pigweed [3, 15]: 25
Plant response rating, Pigweed [3, 16]: 25
Pigweed plant response rating [3, 17]: 35
Pigweed plant response rating [3, 18]: 35
Plant response rating, Pigweed [3, 24]: 55
Plant response rating, Barnyardgrass [4, 13]: 0
Plant response rating, Barnyardgrass [4, 14]: 10
Plant response rating, Barnyardgrass [4, 15]: 35
Plant response rating, Barnyardgrass [4, 16]: 70
Barnyardgrass plant response rating [4, 17]: 80
Barnyardgrass plant response rating [4, 18]: 85
Plant response rating, Barnyardgrass [4, 19]: 98
Plant response rating (scale of 0 to 100; 0 is no effect, 100 is complete control), Barnyardgrass ([4]; Preemergence, 250 g ai/ha): 98
Plant response rating, Oat, Wild [5, 20]: 0
Plant response rating, Oat, Wild [5, 21]: 0
Plant response rating, Oat, Wild [5, 22]: 0
Plant response rating, Oat, Wild [5, 23]: 0
Plant response rating, Corn [6, 13]: 0
Plant response rating, Corn [6, 14]: 0
Plant response rating, Corn [6, 15]: 5
Plant response rating, Corn [6, 16]: 10
Corn plant response rating [6, 17]: 0
Corn plant response rating [6, 18]: 0
Plant response rating, Corn [6, 24]: 10
Plant response rating (scale of 0 to 100), Corn ([6]; Preemergence, 250 g ai/ha): 75
Plant response rating, Waterhemp [7, 13]: 0
Plant response rating, Waterhemp [7, 14]: 0
Plant response rating, Waterhemp [7, 15]: 0
Plant response rating, Waterhemp [7, 16]: 20
Waterhemp plant response rating [7, 18]: 50
Plant response rating, Waterhemp [7, 24]: 60
Plant response rating, Soybean [8, 13]: 0
Plant response rating, Soybean [8, 14]: 0
Plant response rating, Soybean [8, 15]: 0
Plant response rating, Soybean [8, 16]: 0
Soybean plant response rating [8, 18]: 0
Plant response rating, Soybean [8, 24]: 0
Plant response rating, Wheat [9, 13]: 0
Plant response rating, Wheat [9, 14]: 0
Plant response rating, Wheat [9, 15]: 0
Plant response rating, Wheat [9, 16]: 0
Wheat plant response rating [9, 18]: 30
Plant response rating, Wheat [9, 24]: 40
Plant response rating, Rice [10]: 20
Plant response rating, Oilseed Rape [11, 13]: 0
Plant response rating, Oilseed Rape [11, 14]: 0
Plant response rating, Oilseed Rape [11, 15]: 0
Plant response rating, Oilseed Rape [11, 16]: 0
Oilseed Rape plant response rating [11, 17]: 0
Oilseed Rape plant response rating [11, 18]: 10
Plant response rating, Oilseed Rape [11, 24]: 70
Plant response rating (scale of 0 to 100), Oilseed Rape ([11]; Preemergence, 250 g ai/ha): 85
Plant response rating, Velvetleaf [12, 13]: 0
Plant response rating, Velvetleaf [12, 14]: 20
Plant response rating, Velvetleaf [12, 15]: 0
Plant response rating, Velvetleaf [12, 16]: 0
Velvetleaf plant response rating [12, 18]: 15
Plant response rating, Velvetleaf [12, 24]: 40
